Assay results: patent publication US20240417410A1, “TRICYCLIC COMPOUNDS FOR THE TREATMENT OF CANCER” (Hoffmann-La Roche Inc., priority 2023, published 2024)
Where two headings read alike, the source gives them in different places.

How the values were obtained:
Assay in all cases: Cell proliferation, CTG 3D, 7 d
Assay type in all cases: cell-based
UMC-11 = settings: Homo sapiens; UMC-11, KRAS (WT ampl)
Experimental: (§1) On Day-1, cells were plated in 384-well round-bottom ultra-low adhesion plates (cat. Corning 3830, with cell density adjusted according to Table 3. The assay plate was then centrifuged at 1000 rpm for 1 minute to ensure even distribution of cells. The plate was incubated at 37° C. in a 5% CO2 atmosphere (It is worth noting that for SW1271 cell plate, it needs to be incubated in an incubator without additional CO2).
(§2) On Day 0, Example 24 or A122 was added to each well using a Tecan HP D300E dispenser, with a 3-fold dilution across 9 doses. The final concentration of DMSO was normalized to 0.2%. The assay plate was then centrifuged at 1000 rpm for 1 minute and incubated for 7 days.
(§3) On Day 7, CellTiter-Glo (CTG) 3D reagent (Promega G9683) was dispensed into each well of a 384-well plate using a multi-drop dispenser (Thermo Scientific 66413). A liquid handling automation workstation (Bravo with a 384-well head) was used to mix the CTG reagents. Plates were left on a shaker for 30 minutes at 450 rpm, shielded from light.
(§4) For data analysis, the XL-fit software (Supplier: ID Business Solutions Ltd., Software version: XL fit 5.0) was utilized. The percentage of inhibition was calculated using the formula: Inhibition %=(Max-Sample value)/(Max-Min)×100. Curve fitting was performed as follows: For complete dose-response curves, the relative IC50 was reported from the fit. For incomplete curves, if minimal inhibition was greater than 50%, an IC50 less than the lowest compound concentration was reported. If minimal inhibition was between 20% and 50%, the bottom was locked at 0% and the IC50 was reported. If maximal inhibition was less than 50%, an IC50 greater than the highest compound concentration was reported.

Panc 02.13 = settings: Homo sapiens
Experimental: as §1, §2, §3, §4

NCI-H1299 = settings: Homo sapiens
Experimental: as §1, §2, §3, §4

NCI-H2087 = settings: Homo sapiens
Experimental: as §1, §2, §3, §4

HEC-1-A = settings: Homo sapiens, KRAS (G12D)
Experimental: as §1, §2, §3, §4

HAL-01 = settings: Homo sapiens
Experimental: as §1, §2, §3, §4

SW 900 = settings: Homo sapiens, SW900; SW 900, KRAS (G12V)
Experimental: as §1, §2, §3, §4

HuT 78 = settings: Homo sapiens, HuT78
Experimental: as §1, §2, §3, §4

NCI-H1876 = settings: Homo sapiens
Experimental: as §1, §2, §3, §4

PK-59 = settings: Homo sapiens; PK-59, KRAS (G12D)
Experimental: as §1, §2, §3, §4

PANC-1 = settings: Homo sapiens; PANC-1, KRAS (G12D)
Experimental: as §1, §2, §3, §4

NCI-H23 = settings: Homo sapiens; NCI-H23, KRAS (G12C)
Experimental: as §1, §2, §3, §4

CHP-212 = settings: Homo sapiens
Experimental: as §1, §2, §3, §4

OCI-AML-3 = settings: Homo sapiens
Experimental: as §1, §2, §3, §4

SNU-668 = settings: Homo sapiens, SNU668
Experimental: as §1, §2, §3, §4

NCI-H1734 = settings: Homo sapiens
Experimental: as §1, §2, §3, §4

NCI-H747 = settings: Homo sapiens
Experimental: as §1, §2, §3, §4

RERF-LC-Ad1 = settings: Homo sapiens
Experimental: as §1, §2, §3, §4

MM.1S = settings: Homo sapiens, MM1.S
Experimental: as §1, §2, §3, §4

RKN = settings: Homo sapiens, KRAS (G12V)
Experimental: as §1, §2, §3, §4

RPMI8226 = settings: Homo sapiens, RPMI-8226
Experimental: as §1, §2, §3, §4

SW 1088 = settings: Homo sapiens, SW1088
Experimental: as §1, §2, §3, §4

COR-L23 = settings: Homo sapiens; COR-L23, KRAS (G12V)
Experimental: as §1, §2, §3, §4

CAL-62 = settings: Homo sapiens
Experimental: as §1, §2, §3, §4

LoVo = settings: Homo sapiens
Experimental: as §1, §2, §3, §4

NCI-H1355 = settings: Homo sapiens
Experimental: as §1, §2, §3, §4

## CO[C@@H](C)c1ncc(N2CCN(C)CC2)cc1-c1c2c3cc(cc4c3n1CCC4)-c1csc(n1)C[C@H](NC(=O)[C@H]1[C@H](C)[C@@H]1C)C(=O)N1CCC[C@H](N1)C(=O)OCC(C)(C)C2 (atropisomer, axis not shown; (M)) [Example 24, (1r,2R,3S)-N-[(7S,13S)-(20M)-20-[2-[(1S)-1-methoxyethyl]-5-(4-methylpiperazin-1-yl)-3-pyridyl]-17,17-dimethyl-8,14-dioxo-15-oxa-4-thia-9,21,30,31-tetrazahexacyclo[23.3.1.1^2,5.1^9,13.0^19,27.0^21,26]hentriaconta-1 (28),2,5 (31), 19,25 (29),26-hexaen-7-yl]-2,3-dimethyl-cyclopropanecarboxamide]
UMC-11
  IC50: 100 nM
Panc 02.13; Panc 02.13, KRAS (Q61R), read-out: IC50
  IC50: 4 nM
NCI-H1299; NCI-H1299, NRAS (p.Q61K), read-out: IC50
  IC50: 0.93 nM
NCI-H2087; NCI-H2087, NRAS (p.Q61K), read-out: IC50
  IC50: 0.21 nM
HEC-1-A
  IC50: 1.6 nM
HAL-01; HAL-01, NRAS (p.G12S), read-out: IC50
  IC50: 13 nM
SW 900
  IC50: 0.28 nM
HuT 78; HuT 78, NRAS (p.Q61K), read-out: IC50
  IC50: 0.3 nM
NCI-H1876; NCI-H1876, NRAS (p.Q61K), read-out: IC50
  IC50: 3.1 nM
PK-59
  IC50: 0.44 nM
PANC-1
  IC50: 0.95 nM
NCI-H23
  IC50: 0.17 nM
CHP-212; CHP-212, NRAS (p.Q61K), read-out: IC50
  IC50: 0.35 nM
OCI-AML-3; OCI-AML-3, NRAS (p.Q61L), read-out: IC50
  IC50: 3.3 nM
SNU-668; SNU-668, KRAS (Q61K), read-out: IC50
  IC50: 2 nM
NCI-H1734; NCI-H1734, KRAS (G13C), read-out: IC50
  IC50: 0.74 nM
NCI-H747; NCI-H747, KRAS (G13D), read-out: IC50
  IC50: 0.72 nM
RERF-LC-Ad1; RERF-LC-Ad1, KRAS (G12A), read-out: IC50
  IC50: 0.3 nM
MM.1S; MM.1S, KRAS (G12A), read-out: IC50
  IC50: 0.3 nM
RKN
  IC50: 0.045 nM
RPMI8226; RPMI8226, KRAS (G12A), read-out: IC50
  IC50: 0.38 nM
SW 1088; SW 1088, NRAS (p.Q61K), read-out: IC50
  IC50: 0.75 nM
COR-L23
  IC50: 0.53 nM
CAL-62; CAL-62, KRAS (G12R), read-out: IC50
  IC50: 1.1 nM
LoVo; KRAS (G13D), read-out: IC50
  IC50: 0.55 nM
NCI-H1355; NCI-H1355, KRAS (G13C), read-out: IC50
  IC50: 22 nM

## CCn1c(-c2cc(N3CCN(C)CC3)cnc2[C@H](C)OC)c2c3cc(ccc31)-c1csc(n1)C[C@H](NC(=O)[C@H]1C[C@@H]1C)C(=O)N1CCC[C@H](N1)C(=O)OCC(C)(C)O2 [Example A122, reference compound]
UMC-11
  IC50: 100 nM
Panc 02.13
  IC50: 15 nM
NCI-H1299; NCI-H1299
  IC50: 1.5 nM
NCI-H2087; NCI-H2087
  IC50: 0.44 nM
HEC-1-A
  IC50: 1.9 nM
HAL-01; HAL-01
  IC50: 14 nM
SW 900
  IC50: 0.23 nM
HuT 78
  IC50: 0.55 nM
NCI-H1876
  IC50: 3.6 nM
PK-59
  IC50: 0.62 nM
PANC-1
  IC50: 0.68 nM
NCI-H23
  IC50: 0.33 nM
CHP-212; CHP-212
  IC50: 1.1 nM
OCI-AML-3; OCI-AML-3
  IC50: 8.9 nM
SNU-668
  IC50: 4.3 nM
NCI-H1734; NCI-H1734
  IC50: 1.3 nM
NCI-H747; NCI-H747
  IC50: 0.91 nM
RERF-LC-Ad1
  IC50: 0.22 nM
MM.1S
  IC50: 0.55 nM
RKN
  IC50: 0.066 nM
RPMI8226
  IC50: 0.52 nM
SW 1088
  IC50: 2.6 nM
COR-L23
  IC50: 0.78 nM
CAL-62; CAL-62
  IC50: 8.8 nM
LoVo
  IC50: 0.36 nM
NCI-H1355; NCI-H1355
  IC50: 33 nM
